Source: PubChem BioAssay AID256 (DTP/NCI, 2004)
“And” between values parts separate entries of the source, which are not always exact repeats. Identical values can stand only once. Inconclusive results and toxic doses are left out.

Test system: CD2F1 mice, L1210 leukemia ip, survival T/C
Assay: NCI In Vivo Anticancer Drug Screen. Data for tumor model L1210 Leukemia (intraperitoneal) in CD2F1 (CDF1) mice
Conditions: higher = longer survival
Procedure, shortened: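 Antitumor effect is scored in animals hosting a serially transplanted tumor. Values compare compound-dosed animals against vehicle-only controls as a simple quotient.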

[1] = endpoint: mean survival time, dose: 100.0 mg/kg/injection, schedule: Q01DX009 (ip), vehicle: saline with Tween-80
[2] = endpoint: mean survival time, dose: 200.0 mg/kg/injection, schedule: Q01DX009 (ip), vehicle: saline with Tween-80

In the case of `CN(c1ccccc1)c1ccccc1`, the T/C (endpoint: mean survival time, dose: 100.0 mg/kg/injection, schedule: Q01DX001 (ip), vehicle: saline with Tween-80) is reported as 94 % of control and the T/C (endpoint: mean survival time, dose: 200.0 mg/kg/injection, schedule: Q01DX001 (ip), vehicle: saline with Tween-80) is reported as 89 % of control.

For `CC[C@]1(O)C[C@H]2CN(CCc3c([nH]c4ccccc34)[C@@](C(=O)OC)(c3cc4c(cc3OC)N(C=O)[C@H]3[C@@](O)(C(=O)OC)[C@H](OC(C)=O)[C@]5(CC)C=CCN6CC[C@]43[C@@H]65)C2)C1`, the T/C (endpoint: mean survival time, dose: 0.08 mg/kg/injection, schedule: Q01DX009 (ip), vehicle: water) was 121 % of control, the T/C (endpoint: mean survival time, dose: 0.13 mg/kg/injection, schedule: Q01DX009 (ip), vehicle: water) was 122 % of control and the T/C (endpoint: mean survival time, dose: 0.2 mg/kg/injection, schedule: Q04DX003 (ip), vehicle: saline) was 115 % of control. The T/C (endpoint: mean survival time, dose: 0.2 mg/kg/injection, schedule: Q04DX003 (ip), vehicle: water) was 106 % of control, the T/C (endpoint: mean survival time, dose: 0.23 mg/kg/injection, schedule: Q04DX003 (ip), vehicle: water) was 121 % of control and 98 % of control and the T/C (endpoint: mean survival time, dose: 0.36 mg/kg/injection, schedule: Q01DX009 (ip), vehicle: water) was 104 % of control. The T/C (endpoint: mean survival time, dose: 0.39 mg/kg/injection, schedule: Q04DX003 (ip), vehicle: water) was 118 % of control and 108 % of control, the T/C (endpoint: mean survival time, dose: 0.4 mg/kg/injection, schedule: Q04DX003 (ip), vehicle: water) was 106 % of control and 112 % of control and the T/C (endpoint: mean survival time, dose: 0.5 mg/kg/injection, schedule: Q01DX009 (ip), vehicle: saline) was 102 % of control. The T/C (endpoint: mean survival time, dose: 0.5 mg/kg/injection, schedule: Q04DX004 (ip), vehicle: saline) was 117 % of control and 120 % of control and 112 % of control, the T/C (endpoint: mean survival time, dose: 0.65 mg/kg/injection, schedule: Q04DX003 (ip), vehicle: water) was 112 % of control and the T/C (endpoint: mean survival time, dose: 0.8 mg/kg/injection, schedule: Q04DX003 (ip), vehicle: water) was 103 % of control and 110 % of control. For the same molecule, the T/C (endpoint: mean survival time, dose: 1.0 mg/kg/injection, schedule: Q01DX009 (ip), vehicle: saline) was 68 % of control and 73 % of control, the T/C (endpoint: mean survival time, dose: 1.0 mg/kg/injection, schedule: Q04DX004 (ip), vehicle: saline) was 119 % of control and the T/C (endpoint: mean survival time, dose: 1.08 mg/kg/injection, schedule: Q04DX003 (ip), vehicle: water) was 118 % of control. For the same molecule, the T/C (endpoint: mean survival time, dose: 1.5 mg/kg/injection, schedule: Q04DX003 (ip), vehicle: saline) was 121 % of control, the T/C (endpoint: mean survival time, dose: 1.5 mg/kg/injection, schedule: Q04DX004 (ip), vehicle: saline) was 119 % of control and the T/C (endpoint: mean survival time, dose: 1.6 mg/kg/injection, schedule: Q04DX003 (ip), vehicle: saline) was 120 % of control. The T/C (endpoint: mean survival time, dose: 1.6 mg/kg/injection, schedule: Q04DX003 (ip), vehicle: water) was 117 % of control and 108 % of control, the T/C (endpoint: mean survival time, dose: 78.0 micrograms/kg/injection, schedule: Q01DX009 (ip), vehicle: water) was 102 % of control and the T/C (endpoint: mean survival time, dose: 130.0 micrograms/kg/injection, schedule: Q01DX009 (ip), vehicle: water) was 108 % of control. For the same molecule, the T/C (endpoint: mean survival time, dose: 216.0 micrograms/kg/injection, schedule: Q01DX009 (ip), vehicle: water) was 114 % of control, the T/C (endpoint: mean survival time, dose: 360.0 micrograms/kg/injection, schedule: Q01DX009 (ip), vehicle: water) was 124 % of control and the T/C (endpoint: median survival time, dose: 62.5 micrograms/kg/injection, schedule: Q01DX009 (ip), vehicle: water) was 115 % of control. The T/C (endpoint: median survival time, dose: 125.0 micrograms/kg/injection, schedule: Q01DX009 (ip), vehicle: water) was 121 % of control and the T/C (endpoint: median survival time, dose: 1000.0 micrograms/kg/injection, schedule: Q01DX009 (ip), vehicle: water) was 95 % of control.

With `Nc1cccc[n+]1CC(O)C(=O)[O-]` (centres undefined) the T/C (endpoint: mean survival time, dose: 50.0 mg/kg/injection, schedule: Q01DX001 (ip), vehicle: saline) was 107 % of control, the T/C (endpoint: mean survival time, dose: 100.0 mg/kg/injection, schedule: Q01DX001 (ip), vehicle: saline) was 98 % of control and the T/C (endpoint: mean survival time, dose: 200.0 mg/kg/injection, schedule: Q01DX001 (ip), vehicle: saline) was 101 % of control.

With `[Pd+2].[S-]CC[S-]` the T/C (endpoint: mean survival time, dose: 3.13 mg/kg/injection, schedule: Q04DX003 (ip), vehicle: distilled water + Tween-80) was 101 % of control, the T/C (endpoint: mean survival time, dose: 6.25 mg/kg/injection, schedule: Q04DX003 (ip), vehicle: distilled water + Tween-80) was 102 % of control and the T/C (endpoint: mean survival time, dose: 12.5 mg/kg/injection, schedule: Q04DX003 (ip), vehicle: distilled water + Tween-80) was 101 % of control. For the same molecule, the T/C (endpoint: mean survival time, dose: 25.0 mg/kg/injection, schedule: Q04DX003 (ip), vehicle: distilled water + Tween-80) was 104 % of control, the T/C (endpoint: mean survival time, dose: 50.0 mg/kg/injection, schedule: Q04DX003 (ip), vehicle: distilled water + Tween-80) was 95 % of control and the T/C (endpoint: mean survival time, dose: 100.0 mg/kg/injection, schedule: Q04DX003 (ip), vehicle: distilled water + Tween-80) was 95 % of control. The T/C (endpoint: mean survival time, dose: 200.0 mg/kg/injection, schedule: Q04DX003 (ip), vehicle: distilled water + Tween-80) was 95 % of control.

`Nc1nc2n[nH]nc2c(=O)[nH]1` was tested, and the T/C (endpoint: mean survival time, dose: 0.78 mg/kg/injection, schedule: Q01DX009 (ip), vehicle: saline with Tween-80) was 103 % of control, the T/C (endpoint: mean survival time, dose: 1.56 mg/kg/injection, schedule: Q01DX009 (ip), vehicle: saline with Tween-80) was 115 % of control and the T/C (endpoint: mean survival time, dose: 12.5 mg/kg/injection, schedule: Q01DX009 (ip), vehicle: saline with Tween-80) was 150 % of control. The T/C (endpoint: mean survival time, dose: 25.0 mg/kg/injection, schedule: Q01DX009 (ip), vehicle: saline with Tween-80) was 151 % of control, the T/C (endpoint: mean survival time, dose: 50.0 mg/kg/injection, schedule: Q01DX009 (ip), vehicle: other) was 154 % of control and the T/C (endpoint: mean survival time, dose: 50.0 mg/kg/injection, schedule: Q01DX009 (ip), vehicle: saline with Tween-80) was 156 % of control and 158 % of control. The T/C (endpoint: mean survival time, dose: 50.0 mg/kg/injection, schedule: Q03DX003 (ip), vehicle: other) was 120 % of control, the T/C (endpoint: mean survival time, dose: 50.0 mg/kg/injection, schedule: Q04DX003 (ip), vehicle: other) was 111 % of control and the T/C (endpoint: mean survival time, dose: 75.0 mg/kg/injection, schedule: Q01DX009 (ip), vehicle: saline with Tween-80) was 114 % of control. The T/C (endpoint: mean survival time, dose: 100.0 mg/kg/injection, schedule: Q01DX001 (ip), vehicle: saline sonified) was 108 % of control, the T/C (endpoint: mean survival time, dose: 100.0 mg/kg/injection, schedule: Q01DX009 (ip), vehicle: other) was 153 % of control and the T/C [1] was 97 % of control and 107 % of control. For the same molecule, the T/C (endpoint: mean survival time, dose: 100.0 mg/kg/injection, schedule: Q04DX003 (ip), vehicle: other) was 123 % of control, the T/C (endpoint: mean survival time, dose: 200.0 mg/kg/injection, schedule: Q01DX001 (ip), vehicle: saline sonified) was 108 % of control and the T/C (endpoint: mean survival time, dose: 200.0 mg/kg/injection, schedule: Q01DX007 (ip), vehicle: other) was 150 % of control. For the same molecule, the T/C (endpoint: mean survival time, dose: 200.0 mg/kg/injection, schedule: Q01DX009 (ip), vehicle: other) was 153 % of control, the T/C (endpoint: mean survival time, dose: 200.0 mg/kg/injection, schedule: Q01DX009 (ip), vehicle: saline sonified) was 106 % of control and the T/C [2] was 97 % of control. The T/C (endpoint: mean survival time, dose: 200.0 mg/kg/injection, schedule: Q03DX003 (ip), vehicle: other) was 120 % of control, the T/C (endpoint: mean survival time, dose: 200.0 mg/kg/injection, schedule: Q04DX003 (ip), vehicle: other) was 119 % of control and the T/C (endpoint: mean survival time, dose: 400.0 mg/kg/injection, schedule: Q01DX001 (ip), vehicle: saline sonified) was 112 % of control. For the same molecule, the T/C (endpoint: median survival time, dose: 50.0 mg/kg/injection, schedule: Q01DX009 (ip), vehicle: saline) was 164 % of control, the T/C (endpoint: median survival time, dose: 100.0 mg/kg/injection, schedule: Q01DX009 (ip), vehicle: saline) was 164 % of control and the T/C (endpoint: median survival time, dose: 200.0 mg/kg/injection, schedule: Q01DX009 (ip), vehicle: saline) was 164 % of control. For the same molecule, the T/C (endpoint: median survival time, dose: 400.0 mg/kg/injection, schedule: Q01DX009 (ip), vehicle: saline) was 111 % of control.

For `CC(=O)CC(C)=Nc1ccc([N+](=O)[O-])cc1`, the T/C [1] was 90 % of control, the T/C [2] was 93 % of control and the T/C (endpoint: mean survival time, dose: 400.0 mg/kg/injection, schedule: Q01DX009 (ip), vehicle: saline with Tween-80) was 90 % of control.

In the case of `N#Cc1[nH]nc2ncnc(NC(=O)C(F)(F)F)c12`, the T/C (endpoint: mean survival time, dose: 6.25 mg/kg/injection, schedule: Q01DX005 (ip), vehicle: water) is reported as 111 % of control, the T/C (endpoint: mean survival time, dose: 12.5 mg/kg/injection, schedule: Q01DX005 (ip), vehicle: water) is reported as 96 % of control and the T/C (endpoint: mean survival time, dose: 25.0 mg/kg/injection, schedule: Q01DX005 (ip), vehicle: water) is reported as 107 % of control. The T/C (endpoint: mean survival time, dose: 50.0 mg/kg/injection, schedule: Q01DX005 (ip), vehicle: water) was 96 % of control.

In the case of `CCOP(=O)(OCC)/C(C#N)=C\c1ccc(N(C)C)cc1`, the T/C (endpoint: mean survival time, dose: 100.0 mg/kg/injection, schedule: Q04DX003 (ip), vehicle: saline with Tween-80) is reported as 101 % of control, the T/C (endpoint: mean survival time, dose: 200.0 mg/kg/injection, schedule: Q04DX003 (ip), vehicle: saline with Tween-80) is reported as 95 % of control and the T/C (endpoint: mean survival time, dose: 400.0 mg/kg/injection, schedule: Q04DX003 (ip), vehicle: saline with Tween-80) is reported as 98 % of control.

In the case of `CCCCCCC(=O)/C=C/c1cccc(Cl)c1`, the T/C (endpoint: mean survival time, dose: 100.0 mg/kg/injection, schedule: Q04DX003 (ip), vehicle: Klucel (hydroxypropylcellulose) (HPC)) is reported as 104 % of control, the T/C (endpoint: mean survival time, dose: 200.0 mg/kg/injection, schedule: Q04DX003 (ip), vehicle: Klucel (hydroxypropylcellulose) (HPC)) is reported as 102 % of control and the T/C (endpoint: mean survival time, dose: 400.0 mg/kg/injection, schedule: Q04DX003 (ip), vehicle: Klucel (hydroxypropylcellulose) (HPC)) is reported as 91 % of control.

For `C[CH2][Sn]([c]1ccccc1)([c]1ccccc1)[c]1ccccc1`, the T/C (endpoint: mean survival time, dose: 12.5 mg/kg/injection, schedule: Q04DX003 (ip), vehicle: saline with Tween-80) was 97 % of control, the T/C (endpoint: mean survival time, dose: 25.0 mg/kg/injection, schedule: Q04DX003 (ip), vehicle: saline with Tween-80) was 100 % of control and the T/C (endpoint: mean survival time, dose: 50.0 mg/kg/injection, schedule: Q04DX003 (ip), vehicle: saline with Tween-80) was 94 % of control.
